Test [1] concerns TNF-α secretion in RAW 264.7 cells. Briefly: Anti-inflammation study: TNF-α in LPS-stimulated RAW 264.7 cell culture supernatant (ELISA). Type of test: cell-based. The conditions noted are these: 1 hour co-treatment with 1 unit/mL esterase and 1 μg/mL LPS. As for the experimental part: RAW 264.7 cells were seeded in the 48-well plate one day before the experiment. Lipopolysaccharide was added into the cell culture to initiate the inflammatory response in RAW 264.7 cells and to trigger the expression of cytokines. RAW 264.7 cells were co-treated with HPs (HP-101, HP-102, HP-103, HP-104) or iHPs, 1 unit/mL esterase and 1 μg/mL of LPS for 1 hour. Thereafter, the cell culture supernatant was collected. The concentrations of TNF-α in the cell culture supernatant was quantified by a commercial ELISA kit (ELISA Ready-SET-Go!®-eBioscience).

The next test deals with esterase. Briefly: Esterase triggered lactone formation monitored by LC-MS/MS. Type of test: biochemical. On the procedure: The release of hydrogen sulfide and its release rate were detected using LC-MS. A 200 μM HP 10 reaction mixture was treated with esterase for 25 min which led to formation of more than 180 μM of the lactone product as shown in FIG. 2.
HP-101 (final concentration: 200 μM) was added to PBS (10 mL) with 1 unit/mL esterase at 37° C. Reaction mixture (10 μL) was taken out every 3 minutes and added into a vial containing 990 μL methanol at −78° C. for 5 minutes. The mixture (14.5×1000 rp) was centrifuged, and the supernatant was used as the sample for LC-MS/MS analysis (Agilent 1100 LC, 6410 TripleQ MS/MS, Ion transition: 205.0/135.0, positive mode).

The next test deals with porcine liver esterase. Briefly: Esterase-induced H2S release detected with fluorescent probe WSP-5. Format: biochemical. The conditions noted are these: 200 μM, porcine liver esterase 4 u/mL in PBS at 37° C. On the procedure: The ability of esterases to release hydrogen sulfide, as shown in Scheme 17, was examined using a well-known hydrogen sulfide fluorescent probe WSP-5 (3-oxo-3H-spiro[isobenzofuran-1,9′-xanthene]-3′,6′-diyl bis(2-(pyridin-2-yldisulfanyl)benzoate) to detect its production in the hydrogen sulfide precursor (HP) reaction mixture. A 200 μM solution of HP 10 was treated with porcine liver esterase (Aldrich, E2884), 4 u/mL) in PBS at 37° C., then 5 μL reaction mixture was taken into 995 μL acetonitrile and detected using WSP-5. The results are shown in FIG. 1 which indicate that HP 10 releases H2S in phosphate buffer saline with 4 units of esterase.
Because of the high volatility of H2S, when the escape rate is greater than formation rate, the concentration decreases. The peak concentration of H2S also appeared within about 25 min.
HP-101 (final concentration: 200 μM) or other control compounds were added to PBS (10 mL) buffer containing esterase (1 unit/mL) at 37° C. After 15 minutes, aliquots of 100 μL samples were taken out and added into 100 μL PBS containing 50 μM WSP-5 and 100 μM CTAB in 96-well plate. After mixing and standing for 5 min at room temperature, the fluorescent intensities at 535 nm were recorded by a plate reader with excitation at 485 nm. (FIG. 1). […]

Test [2] concerns PLE. The experiment in a line: H2S concentration measurement by electrode probe ISO-H2S-2 in phosphate buffer with esterase. Format: biochemical, pig. To be noted: 200 μM precursor in PBS at 37° C. with 1 unit/mL PLE. On the procedure: HPs (compounds HP-101, HP-102, HP-103, HP-104; final concentration=200 μM) were added to an incubation chamber (World Precision Instruments; WPI) containing phosphate buffer (10 mM; pH 7.4, 10 mL), and esterase (1 unit/mL) at 37° C. H2S formation was detected with the use of a 2-mm H2S-selective microelectrode (ISO-H2S-2; WPI) attached to an Apollo 1100 Free Radical Analyser (WPI) and shown as picoamps current generated. A standard curve (using Na2S.9H2O) was generated by following literature procedures, but using PBS containing esterase at 37° C. (FIG. 4).
H2S release from these precursors was studied (FIG. 4). […] For 200 μM of the precursor compound in PBS at 37° C. with 1 unit/mL PLE, the peak H2S concentration for the fastest one, HP-101, was about 95 μM at 15 min; and for the slowest one, HP-104, it was about 13 μM at 43 min.

The subject of test [3] is esterases produced by the cells. The experiment in a line: H2S release from HP-101 in cell culture media (ISO-H2S-2 electrode). To be noted: 200 μM, 37° C. As for the experimental part:
The in vitro release of H2S from HP-101 was studied under various conditions such as HP-101 (200 μM) in DMEM media (5 mL), cell+DMEM media without FBS, and cell+DMEM media with FBS.
HP-101 (200 μM) was added to an incubation chamber (World Precision Instruments; WPI) containing cell culture media (10 mL) at 37° C. H2S formation was detected with the use of an ISO-H2S-2 probe attached to an Apollo 1100 Free Radical Analyser and shown as picoamps current generated. A standard curve (using Na2S.9H2O) was also generated under the same conditions.

In test [4] the test system is PLE. Briefly: Esterase-triggered release of H2S and parent drug from hybrid precursor (methylene blue method, HPLC). Format: biochemical, pig. The conditions noted are these: 200 μM in phosphate buffer pH 7.4, PLE 20 unit/mL, 37° C. As for the experimental part: To a 9.9 mL phosphate buffer (pH 7.4) solution was added 11.1 mg (200 unit) PLE, followed by the addition of 100 μL 20 mM HP-105 stock solution (final concentration: 200 μM). The resultant solution was sealed and stirred at 37° C. At every 30 min, 200 μL of reaction solution was taken into a 1.5 mL vial containing 200 μL zinc acetate (1%, w/v). Then the vial was centrifuged for 10 min. (14.5×1000 rp). The supernatant was removed and the precipitate was washed with PBS solution (100 μL×2). 600 μL of N,N-dimethyl-1,4-phenylenediaminesulfate (0.2% w/v in 20% H2SO4 solution) and 50 μL ferric chloride (10% w/v in 0.2% H2SO4 solution) was added to the vial. Then the vial was centrifuged for 5 min (14.5×1000 rp). The absorbance (at 740 nm) of the resulting solution was measured (after stirring for 10 min). H2S concentration was calculated based on a calibration curve of NaHS. (FIG. 7A).

As to `C1COCCN1.COc1ccc(P(=S)(S)N2CCOCC2)cc1` (stereo not shown) [GYY 4137], in test [1], the “effect on TNF-α secretion” value is listed as “effectively inhibited TNF-α secretion”.
`CC(=O)Oc1cc(C)cc(C)c1C(C)(C)CC(=O)S` [HP 10, 3-(2-acetoxy-4,6-dimethylphenyl)-3-methylbutanethioic S-acid]: the lactone product formed result with esterase (200 μM reaction mixture treated with esterase for 25 min) is on record as “more than 180 μM”. The H2S released result in the test on esterase (200 μM, esterase, 25 min, inferred from lactone formed) was “more than 90%”. The “H2S release detected using WSP-5” value with porcine liver esterase is “releases H2S”.
For `CC(=O)Oc1cc(C)cc(C)c1C(C)(C)CC(=O)[S-].[Na+]` [HP-101, Sodium 3-(2-acetoxy-4,6-dimethylphenyl)-3-methylbutanethioate], in the test on PLE [2], the “peak H2S concentration” value was “about 95 μM” and the “time of peak H2S concentration” value came out at 15 min. Moreover, the “H2S release in media collected after overnight of cell culture” value in test [3] was “released at a moderate rate”. For the same compound, the “H2S release in DMEM alone” value in test [3] (DMEM media without cells) was “did not release H2S”.
As to `COc1ccc2cc([C@H](C)C(=O)Oc3cc(C)cc(C)c3C(C)(C)CC([O-])=S)ccc2c1.[Na+]` [HP-105, Sodium (S)-3-(2-((2-(6-methoxynaphthalen-2-yl)propanoyl)oxy)-4,6-dimethylphenyl)-3-methylbutanethioate], the “generation of naproxen and H2S by treatment with an esterase” value with PLE [4] is “could generate naproxen and H2S”.
In the case of `[Na+].[Na+].[S-2]` [Na2S], the “effect on TNF-α secretion” value in test [1] was “pro-inflammatory effect”.

(Values after patent US10689335B2, “Hydrogen sulfide precursors and conjugates thereof” (Georgia State University Research Foundation, Inc., priority 2015, dated 2020).)
